# Entries after “also recorded” stand apart in the source; their conditions may differ.
# Tests used:
# [1] = Cloud point (LCST) measurement by spectrophotometry, light transmission at 750 nm; assay type: physicochemical; details: 2 wt % hydroxypropylcellulose; for Effect of modifier on the LCST of hydroxypropylcellulose (Klucel EF): 0.2M sodium citrate, 0.2M magnesium sulfate, 0.2M potassium phosphate monobasic, 0.02M calcium sulfate, 1M mannitol, 1M xylitol
# Source text: The critical solution temperature of a polymer can be measured by spectrophotometry, by differential scanning calorimetry, or by nuclear magnetic resonance spectroscopy. For example, the spectrophotometrical method can be used to measure the cloud point of an LCST polymer. “Cloud point” generally refers to the temperature where the polymer solution in an aqueous medium becomes cloudy, indicating initiation of precipitation or flocculation of the polymer. The spectrophotometical method, as described as follows, can be adopted to screen various combinations of LCST polymers and modifiers to determine whether a modifier is capable of reducing the LCST of a polymer to about 37° C. or lower.
# An LCST polymer is dissolved in distilled water and, optionally, separate solutions of LCST modifiers at various concentrations. Each polymer or polymer/modifier test solution is placed in a separate container, such as a bottle or a beaker, and each container is placed in a water bath. The water bath is equipped with a temperature regulator, and the temperature of the bath is set at approximately 60° C. (the temperature of the bath can start at a high temperature or, alternatively, the temperature of the water bath can start low and be increased gradually at a rate of, e.g., 1° C./min). While in the water bath, each test solution is circulated through a 1-cm flowthrough quartz cuvette using a peristaltic pump (Masterflex) at a flow rate of 50 ml/min. The temperature of the test solution is monitored using a thermocouple, the lead of which is inserted into the test solution in the container. Alternatively, the lead of the thermocouple can be inserted into the cuvette through tubing connecting the container and the cuvette. The light transmission (T %) of each solution is measured spectrophotometrically with a UV spectrophotometer at a wavelength of 750 nm. Initially, spectrophotometric measurements are taken at 2-3° C. intervals. Near the cloud point of a particular polymer or polymer/modifier combination, spectrophotometric measurements are taken more frequently (e.g., at 1 ° C. intervals). The cloud point is ascertained as the temperature at which the light transmission is 90% of the transmission at room temperature.
# [2] = Tablet disintegration time in deionized water at 37° C., disintegration tester; assay type: physicochemical; details: 500 mg tablets, 1.3 cm diameter; 300 ml DI water at 37° C., 200 rpm paddle; n=3
# Protocol: To compare the cohesive properties of the modifiers tested in Example 2, tablets containing 95 wt % of each potential LSCT modifier and 5 wt % of cross-linked sodium carboxylmethylcellulose (Croscarmellose sodium) were tested for their average disintegration time in aqueous medium using a disintegration tester (LIJ-2, Vanguard Pharmaceutical Machinery, Inc. USA). The potential LCST modifier and Croscarmellose sodium were dry-blended in a vial and 500 mg of each blend were compressed under 1 metric ton of compression pressure using a 1.3 cm diameter rounding tool. The resulting tablets were placed into 300 ml of deionized (DI) water (at 37° C., agitated using a 200 rpm paddle) and the disintegration times of the tablets (i.e., the time that it took for each tablet to completely dissolve) were measured. Disintegration times were measured for three tablets of each modifier and average disintegration rates and standard deviates were determined. […]
# An orally disintegrating placebo tablet comprising hydroxypropylcellulose as the LCST polymer and calcium sulfate as the modifier was manufactured as follows. […] The mean disintegration time of the tablets (n=3) was 35 seconds, with standard deviation of 4 seconds, as measured in de-ionized water at 37° C. using a disintegration tester (LIJ-2, Vanguard Pharmaceutical Machinery, Inc. USA). […]
Structure (SMILES),Effect of modifier on the LCST of hydroxypropylcellulose (Klucel EF) [1],"Effect of electrolyte modifier on the LCST of hydroxypropylcellulose, compared at equal concentration ([1]; electrolytes at 0.02M)",Disintegration time of tablets of 95 wt % modifier and 5 wt % Croscarmellose sodium [2],Effect of modifier on the LCST of hydroxypropylcellulose (Klucel EF) ([1]; listed as potassium phosphate (monobasic))
O=S(=O)([O-])[O-].[Ca+2] [calcium sulfate],significantly reduce the LCST; also recorded: capable of reducing the LCST of hydroxypropylcellulose,most effective reducer; also recorded: strongest effect on reducing the LCST,one,
O=S(=O)([O-])[O-].[Mg+2] [magnesium sulfate],significantly reduce the LCST; also recorded: capable of reducing the LCST of hydroxypropylcellulose,,,
OC[C@@H](O)[C@@H](O)[C@H](O)[C@H](O)CO [mannitol],significantly reduce the LCST; also recorded: capable of reducing the LCST of hydroxypropylcellulose,,,
O=P([O-])(O)O.[K+] [potassium phosphate monobasic],capable of reducing the LCST of hydroxypropylcellulose,,one,significantly reduce the LCST
O=C([O-])CC(O)(CC(=O)[O-])C(=O)[O-].[Na+].[Na+].[Na+] [sodium citrate],significantly reduce the LCST; also recorded: capable of reducing the LCST of hydroxypropylcellulose,,,
OC[C@@H](O)[C@H](O)[C@@H](O)CO [xylitol],significantly reduce the LCST; also recorded: capable of reducing the LCST of hydroxypropylcellulose,,,

# From patent publication US8343978B2, “Fast onset orodispersable tablets” (Adds Pharmaceuticals LLC, priority 2008, dated 2013)
